# Data reported in paper PMC5672024, “Selective Glucocorticoid Receptor Properties of GSK866 Analogs with Cysteine Reactive Warheads” (Frontiers in Immunology, 2017).
# pIC50, pKi: −log10 of the molar value.
# Assays:
# GR [1] = tested on: GR; design: method as in PMID 27612544; conditions: ref [14], cited from earlier work; for % inhibition of GR ligand binding: 1.5 nM [3H]-dexamethasone, 1 µM ligand
# [2] = tested on: GR nuclear translocation in A549 cells; assay: Immunofluorescence of nuclear GR translocation in A549 cells; format: cell-based, human; conditions: serum starved A549 cells, 1 µM, 30 min
# Protocol: To detect endogenous GR in A549 cells, cells were grown in serum free media for 24 h followed by treatment with 1 µM of specific GR ligands. After 30 min of treatment, cells on the cover glass were fixed in 4% formaldehyde in phosphate-buffered saline (PBS), permeabilized with 0.3% Triton X-100–PBS, and then blocked in 5% milk, 10% FCS, 0.3% bovine serum albumin, and 0.3% Triton X-100 in PBS for 30 min at room temperature. Primary antibodies against anti GR-antibody (SantaCruz Biotechnology) were used at a dilution of 1:200. Nuclei were stained by DAPI and samples were analyzed using a confocal Leica LSM410 microscope. To quantify nuclear translocation of GR in a standardized manner, multichannel fluorescence images were analyzed using a script for FIJI image analysis freeware (http://fiji.sc) that is essentially based on a pipeline described before (CellBlocks.ijm) ([39]), and is available upon request. In brief, the analysis first segments nuclei in the Hoechst/DAPI channel and then uses the nuclear mask to define perinuclear cytoplasmic regions of interest (ROIs). Nuclei are detected after local contrast enhancement and Gaussian smoothing to, respectively, cover for spatial illumination heterogeneity and noise. After automatic thresholding (Isodata algorithm), touching nuclei are separated using a conditional watershed algorithm ([40]). Next, cytoplasmic ROIs are determined as concentric bands around the nuclei by Voronoi-restrained region growing ([41]). Finally, the average intensity of the GR channel is measured in both the nuclear and cytoplasmic ROIs and the nuclear-to cytoplasm signal intensity ratio (N/C Ratio) is calculated per cell (Figure S1 in Supplementary Material) ([42]).
# Figure 6 Selective glucocorticoid receptor agonist GSK866 analogs UAMC-1217, UAMC-1218, but not UAMC-1158 and UAMC-1159 trigger nuclear glucocorticoid receptor (GR) translocation. (A) Serum starved A549 cells were left solvent treated or treated for 30 min with 1 µM Dex, Dex-mesylate (Dex-Mes), GSK866, UAMC-1158, UAMC-1159, UAMC-1217, or UAMC-1218. GR translocation was evaluated by immunofluorescence whereas nuclei were stained by DAPI dye. Magnification is at 100×. White scalebars represent […]. (B) Automated image quantification of GR translocation of three replicate immunofluorescence images of the different experimental setups.
# GR [3] = assay: Cell-based GR ligand-binding competition assay with [3H]-dexamethasone; conditions: from IC50 values of ligand displacement assays; ref [14]
# GILZ/TSC22D3 mRNA = assay: qPCR of GR target gene GILZ/TSC22D3 in HaCat cells; format: cell-based; conditions: 6 h, 10, 100 or 1,000 nM, compared with Dex
# Protocol: qPCR was performed using the GoTaq qPCR Master Mix (Promega) according to manufacturer’s instructions. In short, a 25 µl reaction volume mix per sample was prepared containing 12.5 µl GoTaq qPCR Master Mix, 0.4 µM forward and reverse primer, and nuclease-free water. We used the Rotor-Gene Q qPCR machine of Qiagen with following PCR program: 95°C for 2 min, 40 cycli denaturation (95°C, 15 s) and annealing/extension (60°C, 30 s), and dissociation (60–95°C). […] Each sample was run in triplicate. The median value of the triplicates were taken to calculate the deltaCt-values using GAPDH as the normalization gene.
# (A) QPCR assays was performed against the GR target gene GILZ/TSC22D3 in HaCat cells treated for 6 h with different concentrations 10, 100 or 1,000 nM Dex or UAMC-1217. Bar graph plot represents the relative mRNA levels of GILZ/TSC22D3 upon Dex or UAMC-1217 treatment. (B) QPCR assays was performed against the TNF-inducible inflammatory gene interleukin-6 (IL6) in HaCat cells treated for 6 h with different concentrations 10, 100, or 1,000 nM Dex or UAMC-1217 either or not, cotreated for the last 4 h with TNF (2,500 IU/ml) as indicated in panel (B). […] Significant mean differences versus control setups panel (A) or TNF treated setup panel (B) are marked as *** (P < 0.001), **(P < 0.01), * (P < 0.05) and were determined by one-way ANOVA (Dunnetts Posttest).
Structure (SMILES),% inhibition of GR ligand binding (GR [1]) [%],nuclear GR translocation [2],"pIC50 (GR [1]; displacement of radiolabeled Dex, read-out: IC50 (GR radioligand binding))","pKi (GR [1]; displacement of radiolabeled Dex, read-out: Ki (GR radioligand binding))",fold lower GR-LBD affinity versus GSK866 (GR [3]),GILZ/TSC22D3 gene expression (GILZ/TSC22D3 mRNA)
"C[C@@H]1C[C@H]2[C@@H]3CCC4=CC(=O)C=C[C@]4(C)[C@@]3(F)[C@@H](O)C[C@]2(C)[C@@]1(O)C(=O)CO [Dex, Dexamethasone, reference compound]",100,induce (partial) translocation of GR from the cytosol to the nucleus,–,–,–,–
CCN(C[C@@](O)(CNC(=O)c1cnn(-c2ccc(F)cc2)c1N)C(F)(F)F)C(=O)c1c(Cl)ccc(NC(=O)CCl)c1Cl [UAMC-1217],92,induce (partial) translocation of GR from the cytosol to the nucleus,7.66,7.96,approx. 5 fold,reduced transactivation effects
